Experiment [1] deals with GluN1-GluN2A NMDAR subtype (Homo sapiens, UniProt Q05586+Q12879). Kind of experiment: FLIPR/Ca2+ assay, NMDAR GluN1-GluN2A subtype in CHO cells. The class given is cell-based. The note with it: CHO cells, 10 μM L-glutamate and 10 μM glycine; n.d. = 50% of inhibition could not be reached at the highest concentration used. As to the method:
(§1) These compounds were assessed for their effects on specific heterodimeric NMDAR subtypes stably overexpressed in Chinese Hamster Ovary (CHO) cells. The subtypes tested included GluN1-GluN2A, GluN1-GluN2B, GluN1-GluN2C, and GluN1-GluN2D. CHO cells expressing each of the four NMDAR subtypes were incubated with 10 μM L-glutamate, a concentration known to elicit maximal Ca^2+ influx, serving as the stimulus. Intracellular Ca^2+ levels were subsequently measured to determine the extent of NMDAR activation.
(§2) Assay buffer composition was 145 mM NaCl, 5 mM KCl, 2 mM CaCl2, 1 g/Liter D-(+)-glucose, and 20 mM HEPES (pH 7.3 adjusted with NaOH). Cells were plated at a density of 15.000/well in 384 black/clear bottom plates. […] Cells were kept at 30 °C in 5% CO2 incubator for 24 h. Cells were preloaded for 1 h with 2 μM Fluo-4 Ca^2+-sensitive probe, simultaneously with 2.5 mM probenecid, an inhibitor of nonspecific anion transport, and 500 μM ketamine to avoid cytotoxicity. […] Intracellular Ca^2+ level was monitored by FLIPR (excitation wavelength at 470–495 nm, emission wavelength at 515–575 nm) for 10 s before and 5 min after the addition of test items. All test items, including L-glutamate and glycine, were added simultaneously. […] FLIPR data were normalized as 100%, in the presence of 10 μM L-glutamate and 10 μM glycine, while as 0%, in the presence of assay buffer. […] Then, data were normalized by Excel 2013 (Microsoft Office) software, using wells added with 10 μM L-glutamate plus 10 μM glycine (column 23) as high control, and wells added with assay buffer only (column 24) as low control. To assess plate quality, Z′ calculations were performed in Excel. Z′ was calculated according to following equation: Z′ = 1–3(σh + σl)/|μh – μL| where μ and σ are the means and the standard deviations of the means of high (h) and low (l) controls, respectively. Compound concentration–response curves were plotted by Prism 8 GraphPad software, in the different experimental conditions (see Supporting Information). Data were analyzed using least-squares regression fitting, to fit data to a standard four parameters logistic equation using GraphPad Prism10. This regression fitting allowed the calculation of pIC50 and the corresponding SEM.

Experiment [2] deals with GluN1-GluN2D NMDAR subtype (Homo sapiens, UniProt O15399+Q05586). Kind of experiment: FLIPR/Ca2+ assay, NMDAR GluN1-GluN2D subtype in CHO cells. The note with it: CHO cells, 10 μM L-glutamate and 10 μM glycine; n.d. = 50% of inhibition could not be reached at the highest concentration used. Format: cell-based. The procedure:
as §1, §2

The target in experiment [3] is GluN1-GluN2C NMDAR subtype (Homo sapiens, UniProt Q05586+Q14957). The experiment in a line: FLIPR/Ca2+ assay, NMDAR GluN1-GluN2C subtype in CHO cells. The class given is cell-based. The note with it: CHO cells, 10 μM L-glutamate and 10 μM glycine; n.d. = 50% of inhibition could not be reached at the highest concentration used. As to the method:
as §1, §2

Experiment [4] deals with T1, Serotonin 5-HT5A (Homo sapiens, UniProt P47898).
T1 construct: host or cells: CHO-K1
Kind of experiment: Radioligand displacement binding assay, [3H]LSD, 5-HT5A.

Experiment [5] deals with T2, Serotonin 5-HT2C (Homo sapiens, UniProt P28335).
T2 construct: host or cells: CHO-K1
T2 sequence (P28335 33-458): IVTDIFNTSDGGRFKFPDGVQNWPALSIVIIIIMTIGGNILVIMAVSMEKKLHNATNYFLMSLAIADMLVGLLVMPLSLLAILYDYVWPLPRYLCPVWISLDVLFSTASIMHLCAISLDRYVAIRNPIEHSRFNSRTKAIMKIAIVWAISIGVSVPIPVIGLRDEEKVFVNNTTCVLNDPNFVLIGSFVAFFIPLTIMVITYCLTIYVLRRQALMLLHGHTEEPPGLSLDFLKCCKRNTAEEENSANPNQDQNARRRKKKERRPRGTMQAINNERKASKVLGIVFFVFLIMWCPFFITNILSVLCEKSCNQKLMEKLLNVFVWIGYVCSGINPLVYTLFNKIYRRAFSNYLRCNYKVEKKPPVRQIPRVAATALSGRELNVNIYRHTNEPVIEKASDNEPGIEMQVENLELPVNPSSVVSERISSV
Kind of experiment: Radioligand displacement binding assay, [3H]mesulergine, 5-HT2C.

Experiment [6] has as its target T3, Norepinephrine transporter NET (Homo sapiens, UniProt P23975).
T3 construct: host or cells: MDCK
The experiment in a line: Radioligand displacement binding assay, [125I]RTI-55, NET.

Experiment [7] deals with T4, Serotonin 5-HT7 (Homo sapiens, UniProt P34969).
T4 construct: host or cells: CHO-K1
Kind of experiment: Radioligand displacement binding assay, [3H]LSD, 5-HT7. (In general: Displacement assays read how much labelled ligand stays bound in the presence of the test substance.)

For experiment [8], the system named is Glutamate, NMDA, Phencyclidine binding site. Kind of experiment: Radioligand displacement binding assay, [3H]TCP, NMDA. Set-up: species or system Wistar rat.
Experiment [9] deals with T5, Sigma σ1 (Homo sapiens, UniProt Q99720).
T5 construct: Sigma σ1; Source: Human Jurkat cells; host or cells: Jurkat
Kind of experiment: Radioligand displacement binding assay, [3H]pentazocine, sigma σ1.

Experiment [10] has as its target T6, Muscarinic M5 (Homo sapiens, UniProt P08912).
T6 construct: host or cells: CHO-K1
T6 sequence (P08912 1-532): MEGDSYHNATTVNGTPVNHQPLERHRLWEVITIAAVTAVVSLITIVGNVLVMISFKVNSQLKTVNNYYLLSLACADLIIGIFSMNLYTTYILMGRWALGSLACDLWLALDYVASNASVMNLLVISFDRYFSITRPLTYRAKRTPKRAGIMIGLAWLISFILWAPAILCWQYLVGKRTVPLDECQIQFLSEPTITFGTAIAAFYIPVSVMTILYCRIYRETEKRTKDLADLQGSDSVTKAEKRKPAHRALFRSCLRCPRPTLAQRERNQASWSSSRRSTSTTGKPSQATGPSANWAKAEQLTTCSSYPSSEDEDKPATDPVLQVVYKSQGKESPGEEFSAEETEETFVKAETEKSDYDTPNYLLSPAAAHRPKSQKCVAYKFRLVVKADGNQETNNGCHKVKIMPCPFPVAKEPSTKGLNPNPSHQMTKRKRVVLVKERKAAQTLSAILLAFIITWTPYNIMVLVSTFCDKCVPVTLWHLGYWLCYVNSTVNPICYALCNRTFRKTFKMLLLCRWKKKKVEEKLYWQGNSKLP
The experiment in a line: Radioligand displacement binding assay, [3H]N-methylscopolamine, M5.

The target in experiment [11] is T7, μ opioid receptor (MOP) (Homo sapiens, UniProt P35372).
T7 construct: host or cells: CHO-K1
Kind of experiment: biochemical. Format: binding. The note with it: read-out: % inhibition of binding, MOP.

The target of experiment [12] is T8, Serotonin 5-HT2A (Homo sapiens, UniProt P28223).
T8 construct: host or cells: CHO-K1
Kind of experiment: Radioligand displacement binding assay, [3H]ketanserin, 5-HT2A.

Experiment [13] has as its target T9, Serotonin 5-HT1A (Homo sapiens, UniProt P08908).
T9 construct: host or cells: CHO-K1
T9 sequence (P08908 1-422): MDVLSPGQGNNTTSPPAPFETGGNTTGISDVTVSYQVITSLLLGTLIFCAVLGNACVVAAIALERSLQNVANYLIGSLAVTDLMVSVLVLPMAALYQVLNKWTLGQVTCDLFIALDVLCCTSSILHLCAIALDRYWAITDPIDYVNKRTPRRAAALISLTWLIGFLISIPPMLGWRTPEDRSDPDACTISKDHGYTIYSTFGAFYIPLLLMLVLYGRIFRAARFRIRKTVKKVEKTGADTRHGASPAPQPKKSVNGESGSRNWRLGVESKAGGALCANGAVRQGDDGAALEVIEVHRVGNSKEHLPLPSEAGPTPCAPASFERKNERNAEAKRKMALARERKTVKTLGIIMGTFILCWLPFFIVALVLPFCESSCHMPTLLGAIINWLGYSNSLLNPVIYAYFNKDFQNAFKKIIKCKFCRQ
Kind of experiment: Radioligand displacement binding assay, [3H]8-OH-DPAT, 5-HT1A.

In experiment [14] the target is T10, Histamine H1 (Homo sapiens, UniProt P35367).
T10 construct: host or cells: CHO-K1
The experiment in a line: Radioligand displacement binding assay, [3H]pyrilamine, H1. Conditions: for displacement at the histamine H1 receptor, in words: concentration not given.

Experiment [15] has as its target T11, Serotonin transporter SERT (Homo sapiens, UniProt P31645).
T11 construct: host or cells: HEK-293
Kind of experiment: Radioligand displacement binding assay, [3H]paroxetine, SERT.

We go through 5 compounds from article PMC11912475 (Journal of Medicinal Chemistry, 2025).

T5 sequence (Q99720 whole entry): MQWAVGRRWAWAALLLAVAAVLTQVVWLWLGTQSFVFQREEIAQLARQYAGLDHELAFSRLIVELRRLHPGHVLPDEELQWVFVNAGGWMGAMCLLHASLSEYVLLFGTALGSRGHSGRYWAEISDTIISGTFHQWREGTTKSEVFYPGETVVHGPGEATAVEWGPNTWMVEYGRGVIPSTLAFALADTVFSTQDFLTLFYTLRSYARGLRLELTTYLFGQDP
Chain of GluN1-GluN2A NMDAR subtype (Q12879 23-1464, other chains not shown): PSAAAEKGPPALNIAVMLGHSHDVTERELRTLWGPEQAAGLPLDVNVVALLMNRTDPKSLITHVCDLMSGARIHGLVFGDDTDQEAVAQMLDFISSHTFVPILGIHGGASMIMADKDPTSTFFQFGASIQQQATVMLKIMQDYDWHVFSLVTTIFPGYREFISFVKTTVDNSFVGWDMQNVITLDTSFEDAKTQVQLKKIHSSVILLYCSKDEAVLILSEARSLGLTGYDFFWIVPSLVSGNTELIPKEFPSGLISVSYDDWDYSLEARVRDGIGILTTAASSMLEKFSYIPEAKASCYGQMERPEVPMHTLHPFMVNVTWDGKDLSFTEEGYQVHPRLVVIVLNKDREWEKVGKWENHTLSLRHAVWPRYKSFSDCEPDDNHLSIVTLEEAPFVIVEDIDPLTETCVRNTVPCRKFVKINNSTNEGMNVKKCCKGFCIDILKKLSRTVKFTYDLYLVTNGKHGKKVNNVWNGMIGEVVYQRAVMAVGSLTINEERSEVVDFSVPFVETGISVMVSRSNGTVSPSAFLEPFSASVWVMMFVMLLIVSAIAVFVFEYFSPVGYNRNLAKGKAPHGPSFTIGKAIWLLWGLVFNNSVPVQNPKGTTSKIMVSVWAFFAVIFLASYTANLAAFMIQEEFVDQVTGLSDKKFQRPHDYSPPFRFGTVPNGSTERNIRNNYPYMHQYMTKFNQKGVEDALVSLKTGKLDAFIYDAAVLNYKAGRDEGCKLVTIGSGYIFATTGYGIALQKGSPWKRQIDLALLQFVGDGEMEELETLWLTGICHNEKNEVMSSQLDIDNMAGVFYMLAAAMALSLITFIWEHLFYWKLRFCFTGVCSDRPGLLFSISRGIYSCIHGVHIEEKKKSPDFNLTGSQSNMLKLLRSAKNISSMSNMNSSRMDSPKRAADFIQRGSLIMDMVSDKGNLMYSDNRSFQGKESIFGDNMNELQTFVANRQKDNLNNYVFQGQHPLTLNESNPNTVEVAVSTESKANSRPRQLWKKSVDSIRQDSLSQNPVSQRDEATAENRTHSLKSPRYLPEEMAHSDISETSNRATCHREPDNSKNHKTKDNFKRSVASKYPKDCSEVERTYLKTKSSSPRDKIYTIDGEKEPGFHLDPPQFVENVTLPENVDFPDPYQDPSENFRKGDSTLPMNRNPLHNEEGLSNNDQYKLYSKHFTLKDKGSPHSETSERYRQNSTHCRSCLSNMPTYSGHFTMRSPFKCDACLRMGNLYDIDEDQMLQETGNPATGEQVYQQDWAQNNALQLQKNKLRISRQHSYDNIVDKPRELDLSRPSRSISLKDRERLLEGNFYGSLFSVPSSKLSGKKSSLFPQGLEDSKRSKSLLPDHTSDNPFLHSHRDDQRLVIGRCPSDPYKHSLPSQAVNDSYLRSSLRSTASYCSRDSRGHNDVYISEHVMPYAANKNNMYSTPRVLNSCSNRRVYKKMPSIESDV
T4 sequence (P34969 whole entry): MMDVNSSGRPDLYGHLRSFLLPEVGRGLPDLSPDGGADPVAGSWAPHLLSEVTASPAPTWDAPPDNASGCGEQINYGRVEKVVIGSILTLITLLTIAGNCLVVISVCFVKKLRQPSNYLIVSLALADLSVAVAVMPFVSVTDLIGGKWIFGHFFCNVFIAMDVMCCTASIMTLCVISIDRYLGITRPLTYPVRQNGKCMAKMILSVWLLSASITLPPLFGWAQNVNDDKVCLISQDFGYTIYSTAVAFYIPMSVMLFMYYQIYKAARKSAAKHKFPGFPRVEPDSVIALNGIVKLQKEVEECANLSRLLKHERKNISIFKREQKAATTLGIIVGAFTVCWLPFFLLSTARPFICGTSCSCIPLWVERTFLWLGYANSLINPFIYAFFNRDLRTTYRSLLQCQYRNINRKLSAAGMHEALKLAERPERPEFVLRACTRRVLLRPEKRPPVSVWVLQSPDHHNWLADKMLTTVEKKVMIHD
T1 sequence (P47898 whole entry): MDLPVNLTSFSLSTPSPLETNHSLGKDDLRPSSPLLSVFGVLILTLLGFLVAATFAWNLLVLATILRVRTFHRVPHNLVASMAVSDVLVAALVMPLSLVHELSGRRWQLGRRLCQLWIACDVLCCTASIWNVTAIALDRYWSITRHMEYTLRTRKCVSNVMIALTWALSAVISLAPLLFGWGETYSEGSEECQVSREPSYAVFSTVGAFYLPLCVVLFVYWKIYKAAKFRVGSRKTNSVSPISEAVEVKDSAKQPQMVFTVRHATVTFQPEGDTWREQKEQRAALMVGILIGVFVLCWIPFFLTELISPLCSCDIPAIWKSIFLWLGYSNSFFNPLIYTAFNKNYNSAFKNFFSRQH
T10 sequence (P35367 whole entry): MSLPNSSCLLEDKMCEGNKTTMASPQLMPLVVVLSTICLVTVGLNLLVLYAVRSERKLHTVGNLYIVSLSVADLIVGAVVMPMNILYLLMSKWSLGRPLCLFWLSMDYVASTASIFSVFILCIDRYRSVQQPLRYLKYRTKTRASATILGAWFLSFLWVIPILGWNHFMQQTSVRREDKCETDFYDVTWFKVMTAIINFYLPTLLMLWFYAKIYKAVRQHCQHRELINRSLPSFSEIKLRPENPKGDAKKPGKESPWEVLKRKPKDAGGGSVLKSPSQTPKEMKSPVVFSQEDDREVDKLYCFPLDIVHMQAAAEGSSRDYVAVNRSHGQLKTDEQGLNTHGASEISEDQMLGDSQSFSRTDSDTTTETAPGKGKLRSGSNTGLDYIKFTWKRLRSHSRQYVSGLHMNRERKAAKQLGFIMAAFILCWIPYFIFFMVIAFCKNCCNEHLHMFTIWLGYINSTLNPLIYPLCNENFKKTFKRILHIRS
T11 sequence (P31645 whole entry): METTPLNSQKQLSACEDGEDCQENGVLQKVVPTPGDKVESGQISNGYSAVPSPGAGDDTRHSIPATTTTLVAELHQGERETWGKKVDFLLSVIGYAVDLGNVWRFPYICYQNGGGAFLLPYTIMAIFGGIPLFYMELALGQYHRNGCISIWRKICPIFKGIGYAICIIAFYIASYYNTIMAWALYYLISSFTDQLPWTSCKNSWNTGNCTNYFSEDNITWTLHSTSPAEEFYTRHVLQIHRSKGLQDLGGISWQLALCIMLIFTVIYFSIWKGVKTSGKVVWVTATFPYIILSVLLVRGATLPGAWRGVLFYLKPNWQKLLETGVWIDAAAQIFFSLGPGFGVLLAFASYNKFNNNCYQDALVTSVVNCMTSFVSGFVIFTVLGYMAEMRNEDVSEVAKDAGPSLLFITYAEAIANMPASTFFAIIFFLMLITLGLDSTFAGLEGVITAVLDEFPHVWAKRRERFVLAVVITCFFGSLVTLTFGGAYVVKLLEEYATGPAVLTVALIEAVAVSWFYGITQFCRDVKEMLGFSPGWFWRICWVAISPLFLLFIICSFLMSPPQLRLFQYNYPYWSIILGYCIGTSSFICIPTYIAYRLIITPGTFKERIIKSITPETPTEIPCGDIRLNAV
T3 sequence (P23975 whole entry): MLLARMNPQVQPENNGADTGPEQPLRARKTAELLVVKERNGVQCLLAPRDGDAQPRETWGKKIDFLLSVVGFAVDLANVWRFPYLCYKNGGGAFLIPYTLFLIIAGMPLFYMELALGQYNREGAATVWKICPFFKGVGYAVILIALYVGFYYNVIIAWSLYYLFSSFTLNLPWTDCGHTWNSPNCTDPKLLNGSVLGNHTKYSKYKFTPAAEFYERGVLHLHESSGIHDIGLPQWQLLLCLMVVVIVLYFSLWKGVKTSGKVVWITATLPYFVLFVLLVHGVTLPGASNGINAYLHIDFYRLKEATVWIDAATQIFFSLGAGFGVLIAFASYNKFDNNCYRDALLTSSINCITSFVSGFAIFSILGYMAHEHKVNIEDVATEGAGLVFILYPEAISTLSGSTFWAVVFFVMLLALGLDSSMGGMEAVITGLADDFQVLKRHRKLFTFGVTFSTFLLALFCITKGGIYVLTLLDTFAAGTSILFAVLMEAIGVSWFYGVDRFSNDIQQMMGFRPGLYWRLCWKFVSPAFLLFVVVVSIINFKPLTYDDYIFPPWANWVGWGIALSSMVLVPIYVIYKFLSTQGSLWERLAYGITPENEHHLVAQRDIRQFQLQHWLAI
T8 sequence (P28223 whole entry): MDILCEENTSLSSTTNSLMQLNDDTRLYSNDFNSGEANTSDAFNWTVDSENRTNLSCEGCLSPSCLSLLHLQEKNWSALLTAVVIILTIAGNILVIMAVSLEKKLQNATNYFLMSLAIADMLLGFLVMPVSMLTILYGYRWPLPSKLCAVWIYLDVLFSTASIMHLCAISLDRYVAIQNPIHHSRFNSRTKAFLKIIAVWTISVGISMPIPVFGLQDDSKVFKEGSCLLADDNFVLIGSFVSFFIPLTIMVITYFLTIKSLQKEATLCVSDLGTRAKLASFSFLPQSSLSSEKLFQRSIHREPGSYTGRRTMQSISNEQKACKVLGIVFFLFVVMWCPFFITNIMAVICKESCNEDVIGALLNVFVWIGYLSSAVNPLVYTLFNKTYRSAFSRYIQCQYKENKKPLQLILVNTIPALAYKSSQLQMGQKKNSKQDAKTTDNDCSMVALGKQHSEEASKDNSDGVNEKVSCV

With `CC[C@@H](O)C(C[C@H](C)N(C)C)(c1ccccc1)c1ccccc1` [(3R,6S)-ML, (3R,6S)-6-(dimethylamino)-4,4-diphenylheptan-3-ol], the “pIC50 (mean ± SEM) GluN1-GluN2A” value in experiment [1] came out at 4.0 ± 0.23.

Regarding `CC[C@H](O)C(C[C@@H](C)N(C)C)(c1ccccc1)c1ccccc1` [(3S,6R)-ML, (3S,6R)-6-(dimethylamino)-4,4-diphenylheptan-3-ol], the “pIC50 (mean ± SEM) GluN1-GluN2D” value in experiment [2] came out at 4.2 ± 0.23. For the same compound, the “pIC50 (mean ± SEM) GluN1-GluN2C” value in experiment [3] is given as 4.2 ± 0.074. The “pIC50 (mean ± SEM) GluN1-GluN2A” value in experiment [1] is on record as 4.5 ± 0.18.

The inhibition is the change of the read-out against control, counted positive when it falls. Consider `CCC1=N[C@H](C)CC1(c1ccccc1)c1ccccc1` [(R)-EMDP, 5-Ethyl-2-methyl-4,4-diphenyl-3,4-dihydro-2H-pyrrole], for which the inhibition at 1 µM is 1% in experiment [4]; -5% in experiment [6]; 0% in experiment [7]; 6% in experiment [10]; 3% in experiment [15]. Moreover, the inhibition at 10 µM in [4] was found to be 0%; in experiment [6], 27%; in experiment [7], 8%; in experiment [10], 3%; in [14] it was 24%; in experiment [15] it was 7%. Also, the inhibition at 0.3 µM was 2% in experiment [5]; 11% in experiment [9]; -4% in [11] (0.3 μM); 4% in experiment [12]; 0% in [13]. Also, the inhibition at 3 µM in [5] came to 7%; in [9], 49%; in experiment [11] (3 μM) it was 8%; in experiment [12], 14%; in [13] it was 7%. The results for the “% inhibition of binding, NMDA” value in [8] (1 μM) and in experiment [8] (10 μM) were 12% and 4%, respectively. Also, the “pIC50 (mean ± SEM) GluN1-GluN2A” value in experiment [1] is reported as 4.8 ± 0.088. Moreover, the inhibition at 30 µM in [14] came to 62%. Further, the “displacement at the histamine H1 receptor, in words” value in experiment [14] is “significant displacement percentages”.

As to `CCC1=[N+](C)[C@H](C)CC1(c1ccccc1)c1ccccc1.[Cl-]` [(R)-EDDP, 2-Ethyl-1,5-dimethyl-3,3-diphenyl-3,4-dihydro-5H-pyrrolium chloride], in [2], the “pIC50 (mean ± SEM) GluN1-GluN2D” value is given as 4.3 ± 0.060. The “pIC50 (mean ± SEM) GluN1-GluN2C” value in experiment [3] is listed as 4.3 ± 0.056.

`CCC(=O)C(C[C@H](C)N(C)C)(c1ccccc1)c1ccccc1` [(S)-methadone, 6-(Dimethylamino)-4,4-diphenylheptan-3-one, reference compound]: the inhibition at 1 µM amounted to 24% in experiment [4]; 5% in [6]; 12% in experiment [7]; 25% in experiment [10]; 21% in experiment [15]. Also, the inhibition at 10 µM worked out at 70% in [4]; 17% in experiment [6]; 58% in experiment [7]; 73% in [10]; 50% in experiment [14]; 74% in experiment [15]. In addition, the inhibition at 0.3 µM in experiment [5] is 30%; in [9] it was 23%; in experiment [12], 22%; in experiment [13], -2%. For the same compound, the inhibition at 3 µM is 77% in experiment [5], 70% in experiment [9], 72% in experiment [12] and 2% in [13]. Besides, the “activity on 5-HT2A, in words” value in experiment [12] (concentration not given) is “appreciable activity”. In experiment [14], the inhibition at 30 µM is 73%. For the same compound, in experiment [14], the “displacement at the histamine H1 receptor, in words” value is recorded as “significant displacement percentages”.
